Results reported in patent US20040266623A1, “SYNERGISTIC QUINCLORAC HERBICIDAL COMPOSITIONS” (priority 2003, published 2004).

Columns and labels:
Test in all cases: Greenhouse pot test, postemergent spray, visual control rating converted to percent control
Format in all cases: in vivo
crabgrass = settings: for Control (1-9) Crabgrass: scale 1=no control, 9=death of plant
Experimental: (§1) Pots of crabgrass, dandelion, white clover, and plantain grown in greenhouse soiless growth media were sprayed with a greenhouse pot sprayer at 43.46 gallons of spray solution/acre and allowed to stand in the greenhouse. Visual observation of the effects made by the herbicidal compositions on the plants in the test pots was recorded for control of crabgrass, dandelion, clover and plantain at 24 hours after treatment (HAT), 48 hours after treatment (HAT), 72 hours after treatment (HAT), 7 days after treatment (DAT), 14 days after treatment (DAT) and 21 days after treatment (DAT). A control rating scale of 1 to 9 was used to record the visual observation of the effect of the herbicidal composition on the plants over the time period of the tests. 1=no control, and 9=death of plant, with intervening numbers representing successive degrees of observed effectiveness of the herbicidal composition over time. The 1-9 control rating scale was converted to percent control in the test data charts that follow.
(§2) The test protocol of S. R. Colby as set out in his article entitled “Calculating Synergistic and Antagonistic Responses of Herbicide Compositions,” received for publication Apr. 11, 1966, Contribution No. 3796 and Scientific Article No. 1271 of the Maryland Agricultural Experiment Station, Department pf Agronomy, University of Maryland was followed to evaluate the synergistic properties of the combination of quinclorac plus a herbicidal protox inhibitor, and a combination of quinclorac, plus a herbicidal protox inhibitor plus a herbicidal auxinic agent as compared with the individual herbicides, using Colby's formulas E=X+Y−XY/100 for a two herbicide combination, where E=the expected percent of inhibition of growth by herbicides, X=the percent inhibition of growth by herbicide A at p lb/A, and Y=the percent inhibition of growth by herbicide B at q lb/A, for a given combination of two herbicides. Colby's formula E=X+Y+Z−(XY+XZ+YZ)/100+XYZ/10,000, was used for the three-way herbicide combination evaluation, where E, X and Y are the same as in the two herbicide formula and Z=the percent inhibition of growth by the third herbicide.

dandelion = settings: for Control (1-9) Dandelion: scale 1=no control, 9=death of plant
Experimental: as §1, §2

plantain = settings: for Control (1-9) Plantain: scale 1=no control, 9=death of plant
Experimental: as §1, §2

white clover = settings: for Control (1-9) Clover: scale 1=no control, 9=death of plant
Experimental: as §1, §2

O=C(O)c1c(Cl)ccc2cc(Cl)cnc12 [Quinclorac @ 0.75 lbs/A]
% Control Crabgrass (crabgrass; Test 3, 7 DAT): 22.2%
Control (1-9) Crabgrass (crabgrass; Test 3, 7 DAT): 2
% Control Crabgrass (crabgrass; Test 3, 14 DAT): 66.7%
Control (1-9) Crabgrass (crabgrass; Test 3, 14 DAT): 6
% Control Crabgrass (crabgrass; Test 3, 21 DAT): 77.8%
Control (1-9) Crabgrass (crabgrass; Test 3, 21 DAT): 7
% Control Crabgrass (crabgrass; Test 3, 24 HAT): 11.1%
Control (1-9) Crabgrass (crabgrass; Test 3, 24 HAT): 1
% Control Crabgrass (crabgrass; Test 3, 72 HAT): 22.2%
Control (1-9) Crabgrass (crabgrass; Test 3, 72 HAT): 2
% Control Crabgrass (crabgrass; Test 4, 24 HAT): 11.1%
Control (1-9) Crabgrass (crabgrass; Test 4, 24 HAT): 1
% Control Crabgrass (crabgrass; Test 4, 72 HAT): 22.2%
Control (1-9) Crabgrass (crabgrass; Test 4, 72 HAT): 2
% Control Dandelion (dandelion; Test 3, 7 DAT): 22.2%
Control (1-9) Dandelion (dandelion; Test 3, 7 DAT): 2
% Control Dandelion (dandelion; Test 3, 14 DAT): 44.4%
Control (1-9) Dandelion (dandelion; Test 3, 14 DAT): 4
% Control Dandelion (dandelion; Test 3, 21 DAT): 33.3%
Control (1-9) Dandelion (dandelion; Test 3, 21 DAT): 3
% Control Dandelion (dandelion; Test 3, 24 HAT): 11.1%
Control (1-9) Dandelion (dandelion; Test 3, 24 HAT): 1
% Control Dandelion (dandelion; Test 3, 72 HAT): 22.2%
Control (1-9) Dandelion (dandelion; Test 3, 72 HAT): 2
% Control Dandelion (dandelion; Test 4, 24 HAT): 11.1%
Control (1-9) Dandelion (dandelion; Test 4, 24 HAT): 1
% Control Dandelion (dandelion; Test 4, 72 HAT): 22.2%
Control (1-9) Dandelion (dandelion; Test 4, 72 HAT): 2
% Control Plantain (plantain; Test 3, 7 DAT): 33.3%
Control (1-9) Plantain (plantain; Test 3, 7 DAT): 3
% Control Plantain (plantain; Test 3, 14 DAT): 55.6%
Control (1-9) Plantain (plantain; Test 3, 14 DAT): 5
% Control Plantain (plantain; Test 3, 21 DAT): 55.6%
Control (1-9) Plantain (plantain; Test 3, 21 DAT): 5
% Control Plantain (plantain; Test 3, 24 HAT): 11.1%
Control (1-9) Plantain (plantain; Test 3, 24 HAT): 1
% Control Plantain (plantain; Test 3, 72 HAT): 22.2%
Control (1-9) Plantain (plantain; Test 3, 72 HAT): 2
% Control Plantain (plantain; Test 4, 24 HAT): 11.1%
Control (1-9) Plantain (plantain; Test 4, 24 HAT): 1
% Control Plantain (plantain; Test 4, 72 HAT): 33.3%
Control (1-9) Plantain (plantain; Test 4, 72 HAT): 3
% Control Clover (white clover; Test 3, 7 DAT): 44.4%
Control (1-9) Clover (white clover; Test 3, 7 DAT): 4
% Control Clover (white clover; Test 3, 14 DAT): 55.6%
Control (1-9) Clover (white clover; Test 3, 14 DAT): 5
% Control Clover (white clover; Test 3, 21 DAT): 88.9%
Control (1-9) Clover (white clover; Test 3, 21 DAT): 8
% Control Clover (white clover; Test 3, 24 HAT): 11.1%
Control (1-9) Clover (white clover; Test 3, 24 HAT): 1
% Control Clover (white clover; Test 3, 72 HAT): 22.2%
Control (1-9) Clover (white clover; Test 3, 72 HAT): 2
% Control Clover (white clover; Test 4, 24 HAT): 11.1%
Control (1-9) Clover (white clover; Test 4, 24 HAT): 1
% Control Clover (white clover; Test 4, 72 HAT): 22.2%
Control (1-9) Clover (white clover; Test 4, 72 HAT): 2

O=C(O)c1c(Cl)ccc2cc(Cl)cnc12 [Quinclorac @ 0.18 lbs/A]
% Control Crabgrass (crabgrass; Test 3, 7 DAT): 22.2%
Control (1-9) Crabgrass (crabgrass; Test 3, 7 DAT): 2
% Control Crabgrass (crabgrass; Test 3, 14 DAT): 33.3%
Control (1-9) Crabgrass (crabgrass; Test 3, 14 DAT): 3
% Control Crabgrass (crabgrass; Test 3, 21 DAT): 33.3%
Control (1-9) Crabgrass (crabgrass; Test 3, 21 DAT): 3
% Control Crabgrass (crabgrass; Test 3, 24 HAT): 11.1%
Control (1-9) Crabgrass (crabgrass; Test 3, 24 HAT): 1
% Control Crabgrass (crabgrass; Test 3, 72 HAT): 11.1%
Control (1-9) Crabgrass (crabgrass; Test 3, 72 HAT): 1
% Control Crabgrass (crabgrass; Test 4, 24 HAT): 11.1%
Control (1-9) Crabgrass (crabgrass; Test 4, 24 HAT): 1
% Control Crabgrass (crabgrass; Test 4, 72 HAT): 11.1%
Control (1-9) Crabgrass (crabgrass; Test 4, 72 HAT): 1
% Control Dandelion (dandelion; Test 3, 7 DAT): 22.2%
Control (1-9) Dandelion (dandelion; Test 3, 7 DAT): 2
% Control Dandelion (dandelion; Test 3, 14 DAT): 33.3%
Control (1-9) Dandelion (dandelion; Test 3, 14 DAT): 3
% Control Dandelion (dandelion; Test 3, 21 DAT): 33.3%
Control (1-9) Dandelion (dandelion; Test 3, 21 DAT): 3
% Control Dandelion (dandelion; Test 3, 24 HAT): 11.1%
Control (1-9) Dandelion (dandelion; Test 3, 24 HAT): 1
% Control Dandelion (dandelion; Test 3, 72 HAT): 22.2%
Control (1-9) Dandelion (dandelion; Test 3, 72 HAT): 2
% Control Dandelion (dandelion; Test 4, 24 HAT): 11.1%
Control (1-9) Dandelion (dandelion; Test 4, 24 HAT): 1
% Control Dandelion (dandelion; Test 4, 72 HAT): 22.2%
Control (1-9) Dandelion (dandelion; Test 4, 72 HAT): 2
% Control Plantain (plantain; Test 3, 7 DAT): 22.2%
Control (1-9) Plantain (plantain; Test 3, 7 DAT): 2
% Control Plantain (plantain; Test 3, 14 DAT): 33.3%
Control (1-9) Plantain (plantain; Test 3, 14 DAT): 3
% Control Plantain (plantain; Test 3, 21 DAT): 33.3%
Control (1-9) Plantain (plantain; Test 3, 21 DAT): 3
% Control Plantain (plantain; Test 3, 24 HAT): 11.1%
Control (1-9) Plantain (plantain; Test 3, 24 HAT): 1
% Control Plantain (plantain; Test 3, 72 HAT): 22.2%
Control (1-9) Plantain (plantain; Test 3, 72 HAT): 2
% Control Plantain (plantain; Test 4, 24 HAT): 11.1%
Control (1-9) Plantain (plantain; Test 4, 24 HAT): 1
% Control Plantain (plantain; Test 4, 72 HAT): 22.2%
Control (1-9) Plantain (plantain; Test 4, 72 HAT): 2
% Control Clover (white clover; Test 3, 7 DAT): 44.4%
Control (1-9) Clover (white clover; Test 3, 7 DAT): 4
% Control Clover (white clover; Test 3, 14 DAT): 44.4%
Control (1-9) Clover (white clover; Test 3, 14 DAT): 4
% Control Clover (white clover; Test 3, 21 DAT): 66.7%
Control (1-9) Clover (white clover; Test 3, 21 DAT): 6
% Control Clover (white clover; Test 3, 24 HAT): 11.1%
Control (1-9) Clover (white clover; Test 3, 24 HAT): 1
% Control Clover (white clover; Test 3, 72 HAT): 22.2%
Control (1-9) Clover (white clover; Test 3, 72 HAT): 2
% Control Clover (white clover; Test 4, 24 HAT): 11.1%
Control (1-9) Clover (white clover; Test 4, 24 HAT): 1
% Control Clover (white clover; Test 4, 72 HAT): 22.2%
Control (1-9) Clover (white clover; Test 4, 72 HAT): 2
